Experimental data published in patent US10654834B2 (Venenum Biodesign, LLC, priority 2016, dated 2020).

How the values were obtained:
mouse TGR5 receptor = molecular target: T1, mouse TGR5 receptor (Mus musculus, UniProt Q80SS6); experiment: Mouse TGR5 HTRF cAMP production assay (HEK293-EBNA cells, Cisbio cAMP HiRange kit); assay type: cell-based; settings: HEK293-EBNA cells overexpressing mouse TGR5, HTRF cAMP assay
T1 construct: host or cells: HEK293-EBNA (293 c18, ATCC CRL10852)
T1 sequence (Q80SS6 1-329): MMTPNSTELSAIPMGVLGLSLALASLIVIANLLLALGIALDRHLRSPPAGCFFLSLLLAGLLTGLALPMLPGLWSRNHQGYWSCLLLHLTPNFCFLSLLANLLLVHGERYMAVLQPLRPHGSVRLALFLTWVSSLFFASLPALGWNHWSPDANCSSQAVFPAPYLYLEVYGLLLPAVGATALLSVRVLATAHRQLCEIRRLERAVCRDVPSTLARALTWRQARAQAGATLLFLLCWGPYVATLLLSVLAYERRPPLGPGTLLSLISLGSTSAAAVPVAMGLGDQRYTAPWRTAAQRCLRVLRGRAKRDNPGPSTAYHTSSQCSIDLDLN
Method in brief: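 cAMP accumulation was read by competitive HTRF after 1 h room-temperature compound treatment, with a further 1 h conjugate incubation. Cells were mouse TGR5-overexpressing HEK293-EBNA in serum-free DMEM plus 500 μM IBMX. Compounds ran as 12-point half-log series in duplicate, and EC50 values were reported.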

human TGR5 receptor = molecular target: T2, human TGR5 receptor (Homo sapiens, UniProt Q8TDU6); experiment: Human TGR5 cAMP production assay (hTGR5-CHO cells, DiscoveRx cAMP XS+ kit); assay type: cell-based; settings: luminescent cAMP assay, read-out: Human TGR5 Lum. cAMP Activity (EC50)
T2 construct: host or cells: CHO-K1 (hTGR5-CHO)
T2 sequence (Q8TDU6 1-330): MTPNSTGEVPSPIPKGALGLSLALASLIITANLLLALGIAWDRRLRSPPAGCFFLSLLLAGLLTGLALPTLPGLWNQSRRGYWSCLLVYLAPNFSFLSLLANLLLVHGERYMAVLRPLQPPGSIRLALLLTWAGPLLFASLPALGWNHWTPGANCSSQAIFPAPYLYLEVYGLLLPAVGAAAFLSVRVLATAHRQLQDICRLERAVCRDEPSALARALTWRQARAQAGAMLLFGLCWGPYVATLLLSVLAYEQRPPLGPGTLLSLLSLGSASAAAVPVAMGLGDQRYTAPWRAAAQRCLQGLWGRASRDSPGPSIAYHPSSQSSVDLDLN
Method in brief: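 EC50 values come from luminescent enzyme-complementation cAMP detection, read after overnight incubation. Beforehand, hTGR5-expressing CHO-K1 cells with IBMX and anti-cAMP antibody were exposed 1 h at room temperature to serially diluted (half-log) compounds.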

[1] = Pharmacokinetic profile in mice after oral gavage; assay type: in vivo, mouse; settings: mouse; fasted male Hilltop mice, 10 mg/kg oral gavage, plasma; read-out: Cmax
Procedure: Pharmacokinetic Profile in Mice
In this series of studies, the pharmacokinetic profile characteristics of compounds of the present invention were evaluated. The plasma concentration levels of the compounds were monitored in the blood stream (i.e., plasma) after oral gavage using Cmax, and area under the curve (AUC).
8 week old male Hilltop mice were fasted overnight. Animals were randomized into groups (n=9) by body weight. Mice were dosed with 10 mg/kg compound (in 20% PEG400/80% 0.5% carboxymethylcellulose (medium viscosity)+0.25% Tween-80) at a volume of […] through oral gavage. Blood was collected via orbital bleeding at 0, 0.25, 0.5, 1, 2, and 4 h post-dose, with no one mouse having more than 3 blood draws. Blood was collected in EDTA coated tubes. Samples were stored at −20° C. until analysis.
Quantitation of compound levels in plasma was accomplished by LC-MS/MS analysis. Standard curve and quality control samples were prepared in male CD-1 mouse plasma containing EDTA K^2+ as an anticoagulant at final concentrations ranging from 500 to 0.1 ng/mL. The plasma samples, calibration curve standards, and quality control samples were prepared in an identical method in a 96-well deep plate (1 mL) with a quenching solution (1:1 mixed acetonitrile:methanol containing the internal standard Reserpine @ 400 ng/mL). Low volume samples were supplemented with CD-1 mouse plasma. The plate was mixed on multi-tube vortexer for 1 min and centrifuged at 4000 rpm for 30 min at 4° C. (Sorvall® Super T21) before LC-MS/MS analysis. LC conditions were developed and optimized based on each compound as needed. The outlet of the column was coupled to AB Sciex 4000 QTrap Mass Spectrometer (AB Sciex, Brugg Switzerland). Detection was carried out using multiple reaction monitoring mode with positive-ion detection focusing. The pharmacokinetic parameters were derived from the plasma-time data and calculated using the standard non-compartmental method with WinNonlin (Pharsight, Mountain View, Calif.) or PK Solver (Comp. Meth. Prog. Biomed. (2010), 99, 306-314).
Values reported are the mean plasma concentration of three mice. […]

SMILES	EC50 (mouse TGR5 receptor) [nM]	EC50 (human TGR5 receptor) [nM]	Cmax [1] [ng/mL]
N#Cc1ccc(CCNC(=O)[C@@H]2CCCN2c2cc(N3CCC(CCCC(=O)N[C@H](CCCNC(=N)N)C(=O)O)CC3)nc(C(F)(F)F)n2)cc1 [Compound 73, (R)-2-(4-(1-(6-((S)-2-((4-cyanophenethyl)carbamoyl)pyrrolidin-1-yl)-2-(trifluoromethyl)pyrimidin-4-yl)piperidin-4-yl)butanamido)-5-guanidinopentanoic acid]	< 100	< 100	2.8
N=C(N)NCCC[C@H](NC(=O)CCCC1CCN(c2cc(N3CCC[C@H]3C(=O)NCCc3ccc(C(F)(F)F)cc3)nc(C(F)(F)F)n2)CC1)C(=O)O [Compound 74, (S)-5-guanidino-2-(4-(1-(2-(trifluoromethyl)-6-((S)-2-((4-(trifluoromethyl)phenethyl)carbamoyl)pyrrolidin-1-yl)pyrimidin-4-yl)piperidin-4-yl)butanamido)pentanoic acid]	< 100	< 100	3.6
N#Cc1ccc(CCNC(=O)[C@@H]2CCCN2c2cc(N3CCC(CCCC(=O)N[C@H](CC(=O)O)C(=O)O)CC3)nc(C(F)(F)F)n2)cc1 [Compound 75, (R)-2-(4-(1-(6-((S)-2-((4-cyanophenethyl)carbamoyl)pyrrolidin-1-yl)-2-(trifluoromethyl)pyrimidin-4-yl)piperidin-4-yl)butanamido)succinic acid]	< 100	< 100	22
N#Cc1ccc(CCNC(=O)[C@@H]2CCCN2c2cc(N3CCC(CCNC(=O)NCS(=O)(=O)O)CC3)nc(C(F)(F)F)n2)cc1 [Compound 79, (S)-(3-(2-(1-(6-(2-((4-cyanophenethyl)carbamoyl)pyrrolidin-1-yl)-2-(trifluoromethyl)pyrimidin-4-yl)piperidin-4-yl)ethyl)ureido)methanesulfonic acid]	< 100	< 100	15
N#Cc1ccc(CCNC(=O)[C@@H]2CCCN2c2cc(N3CCC(CCNC(=O)N[C@@H](CCCNC(=N)N)C(=O)O)CC3)nc(C(F)(F)F)n2)cc1 [Compound 83, (S)-2-(3-(2-(1-(6-((S)-2-((4-cyanophenethyl)carbamoyl)pyrrolidin-1-yl)-2-(trifluoromethyl)pyrimidin-4-yl)piperidin-4-yl)ethyl)ureido)-5-guanidinopentanoic acid]	< 100	< 100	2.5
O=C(NCCCC1CCN(c2cc(N3CCC[C@H]3C(=O)NCCc3ccc(C(F)(F)F)cc3)nc(C(F)(F)F)n2)CC1)NCCS(=O)(=O)O [Compound 87, (S)-2-(3-(3-(1-(2-(trifluoromethyl)-6-(2-((4-(trifluoromethyl)phenethyl)-carbamoyl)-pyrrolidin-1-yl)pyrimidin-4-yl)piperidin-4-yl)propyl)ureido)-ethanesulfonic acid]	< 100	< 100	35
N#Cc1ccc(CCNC(=O)[C@@H]2CCCN2c2cc(N3CCC(COCC(=O)NCCS(=O)(=O)O)CC3)nc(C(F)(F)F)n2)cc1 [Compound 89, (S)-2-(2-((1-(6-(2-((4-cyanophenethyl)carbamoyl)pyrrolidin-1-yl)-2-(trifluoromethyl)pyrimidin-4-yl)piperidin-4-yl)methoxy)acetamido)-ethanesulfonic acid]	< 100	< 100	2.1
O=C(CCCC1CCN(c2cc(N3CCC[C@H]3C(=O)NCCc3ccc(C(F)(F)F)cc3)nc(C(F)(F)F)n2)CC1)NCCNS(=O)(=O)c1ccc(C(=O)O)cc1 [Compound 94, (S)-4-(N-(2-(4-(1-(2-(trifluoromethyl)-6-(2-((4-(trifluoromethyl)phenethyl)-carbamoyl)-pyrrolidin-1-yl)pyrimidin-4-yl)piperidin-4-yl)butanamido)ethyl)-sulfamoyl)benzoic acid]	< 100	< 100	26
